The source of these data is patent US20100003246A1, “Novel heterocyclic compounds and uses therof” (priority 2008, published 2010).

For one assay, the target named is T1, b-Raf(V600E) (Homo sapiens, UniProt P15056, V600E).
T1 construct: made in house
Nature of the assay: Raf/Mek Amplified Luminescence Proximity Homogeneous Assay (Alpha Screen), b-Raf(V600E). Type of assay: biochemical. As to conditions: mutant b-Raf(V600E), read-out: mut-b-RAF (IC50 in uM). In short, it runs like this: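 Active b-Raf(V600E) (~4 pM) pre-incubated 60 min at room temperature with compound and kinase-dead biotinylated Mek (~10 nM) in Tris pH 7.5, MgCl2, BSA, DTT; ATP-started reaction ran 3 h, EDTA-stopped. Phospho-MEK detected by anti-p-MEK AlphaScreen luminescence; IC50 by non-linear regression.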

Another assay relates to K1 cells. The assay is described as follows: Cell Titer-Glo cell viability assay, K1. Type of assay: cell-based. As to conditions: 96 h; Papillary thyroid cell line K1; 4 days compound incubation; 1500 cells/well. How it is done:
(§1) The Cell Titer-Glo® assay (Promega) was used to measure cell viability. Cells were plated into 96-well black walled tissue culture plates in complete growth media. The plates were then incubated under standard growth conditions of 37° C. and 5% CO2 until the cells had attached to the plates (3-6 hours), then compounds were added to the cells. Compounds were serially diluted in DMSO using 3-fold dilutions and then diluted in complete media before being added to the cells (final DMSO concentration on cells was 0.1-0.2%).
(§2) After compound incubation, the cell plates were equilibrated to room temperature, culture media was removed, and 200 uL of Cell Titer-Glo® reagent mix was added to each well (1:1 mixture of Cell Titer-Glo® reagent and complete growth media, equilibrated to room temperature). The plates were shaken for 5-10 minutes, then sealed and luminescence was measured (using Trilux plate reader, Perkin Elmer).
(§3) Analysis of data was done by subtracting the background luminescence value from each data point, then determining the percent inhibition of total growth (as determined by the values for DMSO-treated wells). […]

The next assay has as its system Malme3M cells. Nature of the assay: Cell Titer-Glo cell viability assay, Malme3M. Type of assay: cell-based. As to conditions: Homo sapiens, Malme-3M, 120 h; Melanoma cell line Malme3M; 5 days compound incubation; 1000 cells/well. As to the method:
as §1, §2
(§4) Analysis of data was done by subtracting the background luminescence value from each data point, then determining the percent inhibition of total growth (as determined by the values for DMSO-treated wells).
(§5) To determine the EC50 for each compound, the data were fit using the Levenburg Marquardt algorithm, represented in the XLfit software as y=A+((B−A)/(1+((C/x)̂D))), the four parameter dose response model 205, where A is the minimum Y value, B is the maximum Y value, C is the Log IC50 and D is the slope.

The next assay has as its system A375 cells. The assay is described as follows: Cell Titer-Glo cell viability assay, A375. As to conditions: Homo sapiens, A-375, 72 h; Melanoma cell line A375; 3 days compound incubation; 1000 cells/well. Type of assay: cell-based. As to the method:
as §1, §2, §4, §5

The subject of another assay is Capan1 cells. The assay is described as follows: Cell Titer-Glo cell viability assay, Capan1. As to conditions: Homo sapiens, CAPAN-1, 120 h; Pancreatic cell line Capan1; 5 days compound incubation; 2000 cells/well. Type of assay: cell-based. As to the method: as §1, §2, §4, §5
The test system of the next assay is G361 cells. The assay is described as follows: Cell Titer-Glo cell viability assay, G361. Type of assay: cell-based. Particulars: Homo sapiens, G-361, 96 h; Melanoma cell line G361; 4 days compound incubation; 1000 cells/well. How it is done:
as §1, §2, §4, §5

A further assay has as its system SU86.86 cells. Nature of the assay: Cell Titer-Glo cell viability assay, SU86.86. As to conditions: Homo sapiens, SU.86.86, 120 h; Pancreatic cell line SU86.86; 5 days compound incubation; 1000 cells/well. Type of assay: cell-based. As to the method: as §1, §2, §4, §5
The next assay relates to PC3MM cells. Nature of the assay: Cell Titer-Glo cell viability assay, PC3MM. Type of assay: cell-based. Particulars: 120 h; Prostate cell line PC3MM; 5 days compound incubation; 1500 cells/well. How it is done: as §1, §2, §3

T1 sequence (P15056 whole entry V600E): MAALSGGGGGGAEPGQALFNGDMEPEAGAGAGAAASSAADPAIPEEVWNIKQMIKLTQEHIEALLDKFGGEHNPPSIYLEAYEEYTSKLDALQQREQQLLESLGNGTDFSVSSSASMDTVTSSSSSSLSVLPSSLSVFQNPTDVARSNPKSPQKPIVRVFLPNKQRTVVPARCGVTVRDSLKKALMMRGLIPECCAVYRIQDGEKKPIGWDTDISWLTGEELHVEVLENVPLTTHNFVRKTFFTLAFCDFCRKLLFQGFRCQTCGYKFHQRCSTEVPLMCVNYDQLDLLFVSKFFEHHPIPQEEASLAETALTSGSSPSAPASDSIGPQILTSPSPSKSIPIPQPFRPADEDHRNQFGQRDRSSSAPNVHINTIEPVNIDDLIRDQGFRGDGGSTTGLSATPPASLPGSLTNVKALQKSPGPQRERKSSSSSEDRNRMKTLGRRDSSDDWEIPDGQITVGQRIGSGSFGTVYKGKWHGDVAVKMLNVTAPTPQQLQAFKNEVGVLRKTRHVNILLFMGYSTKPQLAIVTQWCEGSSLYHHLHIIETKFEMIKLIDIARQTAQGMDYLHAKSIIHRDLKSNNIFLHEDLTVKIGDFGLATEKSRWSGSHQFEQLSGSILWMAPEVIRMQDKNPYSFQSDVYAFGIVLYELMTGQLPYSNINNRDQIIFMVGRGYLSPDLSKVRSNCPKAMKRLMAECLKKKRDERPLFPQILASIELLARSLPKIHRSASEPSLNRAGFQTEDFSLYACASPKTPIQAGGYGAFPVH

Consider `COCC(=O)N[C@@H](C)CNc1nccc(-c2[nH]c(-c3ccc(C(F)(F)F)cc3)nc2-c2cnc(N)c(OC)c2)n1` [Compound 198, (S)-N-(1-(4-(4-(6-amino-5-methoxypyridin-3-yl)-2-(4-(trifluoromethyl)phenyl)-1H-imidazol-5-yl)pyrimidin-2-ylamino)propan-2-yl)-2-methoxyacetamide], for which, on b-Raf(V600E), the IC50 was 0.0003 µM. This compound returned an EC50 in the assay with K1 cells of 787 nM.
As to `COCC(=O)NCCNc1nccc(-c2nc(-c3ccc(F)cc3)[nH]c2-c2cnc(N)c(OC)c2)n1` [Compound 81, N-(2-(4-(5-(6-amino-5-methoxypyridin-3-yl)-2-(4-fluorophenyl)-1H-imidazol-4-yl)pyrimidin-2-ylamino)ethyl)-2-methoxyacetamide], the 50% effective concentration (EC50) in the assay on Malme3M cells is 194 nM; with A375 cells, 547 nM; in the assay on Capan1 cells, 319 nM; with G361 cells, 305 nM. The IC50 at b-Raf(V600E) was 0.0001 µM.
For the compound `COCC(=O)N[C@@H](C)CNc1nccc(-c2[nH]c(-c3ccc(F)cc3)nc2-c2cnc(N)c(OC)n2)n1` [Compound 5, (S)-N-(1-(4-(4-(5-amino-6-methoxypyrazin-2-yl)-2-(4-fluorophenyl)-1H-imidazol-5-yl)pyrimidin-2-ylamino)propan-2-yl)-2-methoxyacetamide], the concentration giving a half-maximal response (EC50) with SU86.86 cells was 354 nM; in the assay on K1 cells, 892 nM.
Take `COc1cc(Nc2nccc(-c3[nH]c(C(C)(C)C)nc3-c3cnc(N)c(OC)n3)n2)ccn1` [Compound 9, 4-(4-(5-amino-6-methoxypyrazin-2-yl)-2-tert-butyl-1H-imidazol-5-yl)-N-(2-methoxypyridin-4-yl)pyrimidin-2-amine]: the concentration for a half-maximal effect (EC50) in the assay with PC3MM cells was found to be 250 nM.
On to `COc1cc(-c2[nH]c(-c3ccccc3)nc2-c2ccncc2)cnc1N` [Compound 1, 3-methoxy-5-(2-phenyl-4-(pyridin-4-yl)-1H-imidazol-5-yl)pyridin-2-amine], for which the concentration giving a half-maximal response (EC50) in the assay on SU86.86 cells turned out to be 116 nM; with Malme3M cells, 429 nM; in the assay on A375 cells it was 376 nM; in the assay on Capan1 cells, 570 nM; in the assay with G361 cells it was 70 nM.
With `COCC(=O)N[C@@H](C)CNc1nccc(-c2[nH]c(-c3ccc(F)cc3)nc2-c2cnc(N)c(OC)c2)n1` [Compound 163, (S)-N-(1-(4-(4-(6-amino-5-methoxypyridin-3-yl)-2-(4-fluorophenyl)-1H-imidazol-5-yl)pyrimidin-2-ylamino)propan-2-yl)-2-methoxyacetamide], the half-maximal effective concentration (EC50) with PC3MM cells is 83 nM; in the assay on SU86.86 cells it was 28 nM; with Capan1 cells, 535 nM. At b-Raf(V600E), the IC50 was determined as 0.0001 µM.
